In patent EP0420121A1, “Antitumor composition” (Senju Pharmaceutical Co., Ltd., priority 1989, dated 1991):
Values joined by “and” are separate entries in the source; they are usually repeats but may differ in a detail not shown here. Identical values can stand only once.

Tested on: Sarcoma 180 cells
Experiment: Pharmacological activity testing in mice with sarcoma 180
Format: in vivo, ddy strain male mice
Details: 100 mg/kg intraperitoneally once daily for 11 days
From the text: Pharmacological activity testing in mice with sarcoma 180
Sarcoma 180 cells (1.16 X 10⁷ cells/animal) were transplanted into groups of 8 ddy strain male mice (5 to 6 weeks of age) subcutaneously at the back on the right side of the body. In one group, the compound S- (α ,β -dicarboxyethyl)glutathione (hereinafter referred to as "DCE-GS" for short) in the forms of a 1.0% (w/v) injectable solution (pH 6.5; isotonized with sodium chloride) was intraperitoneally administered to the animals in a volume corresponding to the dose of 100 mg/kg once daily for 11 days. The control group was intraperitoneally given the same volume of physiological saline once daily for the same period. On day 12, the animals were sacrificed, the tumor was excised from each animal and weighed.

Compound: N[C@@H](CCC(=O)N[C@@H](CSC(CC(=O)O)C(=O)O)C(=O)NCC(=O)O)C(=O)O (stereo partly drawn) [DCE-GS, S-(α ,β -Dicarboxyethyl)glutathione]
- Tumor growth inhibition (day 12, versus physiological saline group): Tumor growth inhibition = (3.45 - 1.79)/3.45 X 100 = 48.1%
- Tumor weights (Mean) (sarcoma 180 transplanted subcutaneously, day 12, mean of 8 mice, physiological saline group 3.45± 0.42): 1.79 ± 0.14 g
- Tumor weights (individual animals) (sarcoma 180 transplanted subcutaneously, tumor excised and weighed on day 12, individual No. 1-8, 100 mg/kg): 2.48 g and 1.92 g and 2.09 g and 1.47 g and 1.95 g and 1.11 g and 1.62 g and 1.69 g
